Data from paper PMC2362906, “Effects of new 17α-hydroxylase/C17,20-lyase inhibitors on LNCaP prostate cancer cell growth in vitro and in vivo” (British Journal of Cancer, 1999).
Entries after “also recorded” stand apart in the source; their conditions may differ.

Columns and labels:
LNCaP cells [1] = experiment: LNCaP cell growth in steroid-free medium; format: cell-based, human; details: steroid-free medium
From the text: Prostate cancer is the most common malignancy and the second leading cause of cancer-related deaths among men in the US and the UK (Shibata et al, 1998). […] Steroidal 17-hydroxylase/C17,20 -lyase (P450c17) (EC 1.14.99.0) was selected as the target enzyme for inhibition, as this is a key regulatory enzyme of androgen synthesis. P450c17 catal- yses two sequential reactions in the steroid biosynthetic pathway and converts pregnenolone and progesterone to the C-19 andro- gens, dehydroepiandrosterone and androstenedione respectively. This enzyme has an identical amino acid sequence in testicular and adrenal tissues (Chung et al, 1987). […] In order to evaluate the effectiveness of these inhibitors we developed a multi-step system, which utilized the LNCaP human prostate cancer cell line. LNCaP cells remain the only androgen receptor (AR)-positive prostate cancer cell line, that can be readily grown in tissue culture (Horoszewicz et al, 1983). These cells respond to androgens with increased cell proliferation and elevated expression of prostate specific antigen (PSA) (Berns et al, 1993). LNCaP cells at early passages are not only androgen-responsive, but also androgen- dependent (Pousette et al, 1997). This is similar to the situation in most tumours of prostatic cancer patients, which are initially highly responsive and dependent on androgens. […] Therefore, we employed LNCaP cells as a model for evaluating the effectiveness of our new inhibitors of androgen synthesis. In this study the compounds selected for evaluation were two groups of azolyl steroids. […] Here we report on the application of LNCaP-CYP17-transfected cells for determining the inhibitory potencies of the new compounds against the P450c17 enzyme. […] We designed and evaluated two groups of azolyl steroids: 5-non-competitive inhibitors (5NCIs), VN/63-1, VN/85-1, VN/87-1 and their corresponding 4 derivatives (4NCIs), VN/107-1, VN/108-1 and VN/109-1. The human P450c17 gene was transfected into LNCaP human prostate cancer cells, and the resultant LNCaP- CYP17 cells were utilized to evaluate the inhibitory potency of the new azolyl steroids. […] We further evaluated our inhibitors in male severe combined immuno- deficient mice bearing LNCaP tumour xenografts. […] We also utilized wild-type LNCaP prostatic carcinoma cells for evaluating the direct effects of new azolyl steroids on proliferation of these cells in vitro and in vivo. MATERIALS AND METHODS Materials The human prostate cancer cell line LNCaP was obtained from the American Type Culture Collection (Rockville, MD, USA). RPMI- 1640 medium, trypsin-EDTA (0.25%/0.02%), penicillin/strepto- mycin (P/S), geniticin (G418), and LipofectAMINE were from Gibco-BRL (Grand Island, NY, USA). […]

LNCaP cells [2] = experiment: DHT-stimulated wild-type LNCaP cell growth; format: cell-based, human; details: 0.03 nM DHT, 9 days
From the text: (§1) Prostate cancer is the most common malignancy and the second leading cause of cancer-related deaths among men in the US and the UK (Shibata et al, 1998). […] Steroidal 17-hydroxylase/C17,20 -lyase (P450c17) (EC 1.14.99.0) was selected as the target enzyme for inhibition, as this is a key regulatory enzyme of androgen synthesis. P450c17 catal- yses two sequential reactions in the steroid biosynthetic pathway and converts pregnenolone and progesterone to the C-19 andro- gens, dehydroepiandrosterone and androstenedione respectively. This enzyme has an identical amino acid sequence in testicular and adrenal tissues (Chung et al, 1987). […] In order to evaluate the effectiveness of these inhibitors we developed a multi-step system, which utilized the LNCaP human prostate cancer cell line. LNCaP cells remain the only androgen receptor (AR)-positive prostate cancer cell line, that can be readily grown in tissue culture (Horoszewicz et al, 1983). These cells respond to androgens with increased cell proliferation and elevated expression of prostate specific antigen (PSA) (Berns et al, 1993). LNCaP cells at early passages are not only androgen-responsive, but also androgen- dependent (Pousette et al, 1997). This is similar to the situation in most tumours of prostatic cancer patients, which are initially highly responsive and dependent on androgens. […] Therefore, we employed LNCaP cells as a model for evaluating the effectiveness of our new inhibitors of androgen synthesis. In this study the compounds selected for evaluation were two groups of azolyl steroids. […] Here we report on the application of LNCaP-CYP17-transfected cells for determining the inhibitory potencies of the new compounds against the P450c17 enzyme. […] We designed and evaluated two groups of azolyl steroids: 5-non-competitive inhibitors (5NCIs), VN/63-1, VN/85-1, VN/87-1 and their corresponding 4 derivatives (4NCIs), VN/107-1, VN/108-1 and VN/109-1. The human P450c17 gene was transfected into LNCaP human prostate cancer cells, and the resultant LNCaP- CYP17 cells were utilized to evaluate the inhibitory potency of the new azolyl steroids. […] We further evaluated our inhibitors in male severe combined immuno- deficient mice bearing LNCaP tumour xenografts. […] We also utilized wild-type LNCaP prostatic carcinoma cells for evaluating the direct effects of new azolyl steroids on proliferation of these cells in vitro and in vivo. MATERIALS AND METHODS Materials The human prostate cancer cell line LNCaP was obtained from the American Type Culture Collection (Rockville, MD, USA). RPMI- 1640 medium, trypsin-EDTA (0.25%/0.02%), penicillin/strepto- mycin (P/S), geniticin (G418), and LipofectAMINE were from Gibco-BRL (Grand Island, NY, USA). Fetal bovine serum (FBS) was obtained from Summit Biotechnology Inc. (Fort Collins, CO, USA) and steroid-free FBS was prepared as described previously (Klus et al, 1996). Phenol red free IMEM and trypsin-versine were purchased from Biofluids Inc. (Rockville, MD, USA). Chloroform and acetonitrile were purchased from JT Baker, Inc (Phillipsburg, NJ, USA). Hydroxypropyl cellulose (HPC) was purchased from Sigma Chemical Co. (St Louis, MO, USA). The PSA enzyme- linked immunusorbent assay (ELISA) kit was from DSL Inc. (Webster, TX, USA). Matrigel was generously supplied by Dr Hynda Kleinman (NIH, Bethesda, MD, USA). Inhibitors of androgen synthesis: VN/63-1, VN/85-1, VN/87-1, VN/107-1, VN/108-1 and VN/109-1 were synthesized in our labo- ratory as previously described (Njar et al, 1998). […] Metribolone [17-methyl-3 H]-R1881 ([3 H]-R1881: specific activity 86 Ci mmol-1 ) was purchased from Dupont NEN (Boston, MA, USA).

LNCaP tumour xenografts = experiment: LNCaP tumour xenograft growth in male SCID mice; format: in vivo; details: first experiment
From the text: as §1

[3] = target: human prostatic 5-reductase; design: method as in Njar et al, 1998; details: human prostatic microsomes; reported previously; ref Njar et al, 1998; cited from earlier work
serum PSA = experiment: Serum PSA (ELISA) in LNCaP tumour-bearing SCID mice; format: in vivo, male SCID mice; details: first experiment, 50 mg kg-1 day-1, 28 days
From the text: Prostate cancer is the most common malignancy and the second leading cause of cancer-related deaths among men in the US and the UK (Shibata et al, 1998). […] Steroidal 17-hydroxylase/C17,20 -lyase (P450c17) (EC 1.14.99.0) was selected as the target enzyme for inhibition, as this is a key regulatory enzyme of androgen synthesis. P450c17 catal- yses two sequential reactions in the steroid biosynthetic pathway and converts pregnenolone and progesterone to the C-19 andro- gens, dehydroepiandrosterone and androstenedione respectively. This enzyme has an identical amino acid sequence in testicular and adrenal tissues (Chung et al, 1987). […] In order to evaluate the effectiveness of these inhibitors we developed a multi-step system, which utilized the LNCaP human prostate cancer cell line. LNCaP cells remain the only androgen receptor (AR)-positive prostate cancer cell line, that can be readily grown in tissue culture (Horoszewicz et al, 1983). These cells respond to androgens with increased cell proliferation and elevated expression of prostate specific antigen (PSA) (Berns et al, 1993). LNCaP cells at early passages are not only androgen-responsive, but also androgen- dependent (Pousette et al, 1997). This is similar to the situation in most tumours of prostatic cancer patients, which are initially highly responsive and dependent on androgens. […] Therefore, we employed LNCaP cells as a model for evaluating the effectiveness of our new inhibitors of androgen synthesis. In this study the compounds selected for evaluation were two groups of azolyl steroids. […] Here we report on the application of LNCaP-CYP17-transfected cells for determining the inhibitory potencies of the new compounds against the P450c17 enzyme. […] We designed and evaluated two groups of azolyl steroids: 5-non-competitive inhibitors (5NCIs), VN/63-1, VN/85-1, VN/87-1 and their corresponding 4 derivatives (4NCIs), VN/107-1, VN/108-1 and VN/109-1. The human P450c17 gene was transfected into LNCaP human prostate cancer cells, and the resultant LNCaP- CYP17 cells were utilized to evaluate the inhibitory potency of the new azolyl steroids. […] We further evaluated our inhibitors in male severe combined immuno- deficient mice bearing LNCaP tumour xenografts. […] We also utilized wild-type LNCaP prostatic carcinoma cells for evaluating the direct effects of new azolyl steroids on proliferation of these cells in vitro and in vivo. MATERIALS AND METHODS Materials The human prostate cancer cell line LNCaP was obtained from the American Type Culture Collection (Rockville, MD, USA). RPMI- 1640 medium, trypsin-EDTA (0.25%/0.02%), penicillin/strepto- mycin (P/S), geniticin (G418), and LipofectAMINE were from Gibco-BRL (Grand Island, NY, USA). Fetal bovine serum (FBS) was obtained from Summit Biotechnology Inc. (Fort Collins, CO, USA) and steroid-free FBS was prepared as described previously (Klus et al, 1996). Phenol red free IMEM and trypsin-versine were purchased from Biofluids Inc. (Rockville, MD, USA). Chloroform and acetonitrile were purchased from JT Baker, Inc (Phillipsburg, NJ, USA). Hydroxypropyl cellulose (HPC) was purchased from Sigma Chemical Co. (St Louis, MO, USA). The PSA enzyme- linked immunusorbent assay (ELISA) kit was from DSL Inc. (Webster, TX, USA). Matrigel was generously supplied by Dr Hynda Kleinman (NIH, Bethesda, MD, USA). […]

serum DHT = experiment: Serum DHT (RIA) in SCID mice; format: in vivo, male SCID mice; details: Table 2, first experiment, 28 days of treatment, 50 mg kg-1 day-1; control 243.8
From the text: as §1

LNCaP cells [4] = experiment: Testosterone-stimulated wild-type LNCaP cell growth; format: cell-based, human
From the text: as §1

serum testosterone = experiment: Serum testosterone (RIA) in SCID mice; format: in vivo, male SCID mice; details: Table 2, first experiment, 28 days of treatment, 50 mg kg-1 day-1; control 1.043
From the text: as §1

[5] = target: T1, human 17α-hydroxylase/C17,20-lyase (P450c17) expressed in LNCaP-CYP17 cells (Homo sapiens, UniProt P05093); experiment: [3H]-acetic acid releasing assay (AARA) with LNCaP-CYP17 cells; format: cell-based; details: LNCaP-CYP17 cells, 7 μM [21-3H]17-OHP5, 16 h; mean ± s.e.m., three experiments
T1 sequence (P05093 9-508 limits assumed): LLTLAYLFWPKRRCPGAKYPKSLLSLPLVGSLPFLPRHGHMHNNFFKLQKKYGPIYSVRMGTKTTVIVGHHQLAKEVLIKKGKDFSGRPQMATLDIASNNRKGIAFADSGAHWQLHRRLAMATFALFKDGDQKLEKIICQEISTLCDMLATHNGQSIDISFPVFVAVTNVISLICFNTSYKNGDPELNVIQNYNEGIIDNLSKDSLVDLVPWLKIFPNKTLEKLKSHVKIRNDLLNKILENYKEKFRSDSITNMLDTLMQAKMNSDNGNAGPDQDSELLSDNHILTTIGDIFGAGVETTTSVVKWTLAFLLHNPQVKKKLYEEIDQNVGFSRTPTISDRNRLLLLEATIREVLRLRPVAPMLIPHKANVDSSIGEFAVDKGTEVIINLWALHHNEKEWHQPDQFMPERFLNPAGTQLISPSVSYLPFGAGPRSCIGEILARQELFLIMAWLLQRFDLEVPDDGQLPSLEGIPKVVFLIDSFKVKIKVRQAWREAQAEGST

LNCaP androgen receptor = target: T2, LNCaP androgen receptor (Homo sapiens, UniProt P10275, T878A); experiment: Androgen receptor binding assay ([3H]R1881 displacement in LNCaP cells); details: from growth and binding results
T2 construct: endogenous in cells; host or cells: LNCaP (wild-type, untransfected)
From the text: Prostate cancer is the most common malignancy and the second leading cause of cancer-related deaths among men in the US and the UK (Shibata et al, 1998). […] Steroidal 17-hydroxylase/C17,20 -lyase (P450c17) (EC 1.14.99.0) was selected as the target enzyme for inhibition, as this is a key regulatory enzyme of androgen synthesis. P450c17 catal- yses two sequential reactions in the steroid biosynthetic pathway and converts pregnenolone and progesterone to the C-19 andro- gens, dehydroepiandrosterone and androstenedione respectively. This enzyme has an identical amino acid sequence in testicular and adrenal tissues (Chung et al, 1987). […] In order to evaluate the effectiveness of these inhibitors we developed a multi-step system, which utilized the LNCaP human prostate cancer cell line. LNCaP cells remain the only androgen receptor (AR)-positive prostate cancer cell line, that can be readily grown in tissue culture (Horoszewicz et al, 1983). […] We designed and evaluated two groups of azolyl steroids: 5-non-competitive inhibitors (5NCIs), VN/63-1, VN/85-1, VN/87-1 and their corresponding 4 derivatives (4NCIs), VN/107-1, VN/108-1 and VN/109-1. […] We further evaluated our inhibitors in male severe combined immuno- deficient mice bearing LNCaP tumour xenografts. […]

T2 sequence (P10275 whole entry T878A): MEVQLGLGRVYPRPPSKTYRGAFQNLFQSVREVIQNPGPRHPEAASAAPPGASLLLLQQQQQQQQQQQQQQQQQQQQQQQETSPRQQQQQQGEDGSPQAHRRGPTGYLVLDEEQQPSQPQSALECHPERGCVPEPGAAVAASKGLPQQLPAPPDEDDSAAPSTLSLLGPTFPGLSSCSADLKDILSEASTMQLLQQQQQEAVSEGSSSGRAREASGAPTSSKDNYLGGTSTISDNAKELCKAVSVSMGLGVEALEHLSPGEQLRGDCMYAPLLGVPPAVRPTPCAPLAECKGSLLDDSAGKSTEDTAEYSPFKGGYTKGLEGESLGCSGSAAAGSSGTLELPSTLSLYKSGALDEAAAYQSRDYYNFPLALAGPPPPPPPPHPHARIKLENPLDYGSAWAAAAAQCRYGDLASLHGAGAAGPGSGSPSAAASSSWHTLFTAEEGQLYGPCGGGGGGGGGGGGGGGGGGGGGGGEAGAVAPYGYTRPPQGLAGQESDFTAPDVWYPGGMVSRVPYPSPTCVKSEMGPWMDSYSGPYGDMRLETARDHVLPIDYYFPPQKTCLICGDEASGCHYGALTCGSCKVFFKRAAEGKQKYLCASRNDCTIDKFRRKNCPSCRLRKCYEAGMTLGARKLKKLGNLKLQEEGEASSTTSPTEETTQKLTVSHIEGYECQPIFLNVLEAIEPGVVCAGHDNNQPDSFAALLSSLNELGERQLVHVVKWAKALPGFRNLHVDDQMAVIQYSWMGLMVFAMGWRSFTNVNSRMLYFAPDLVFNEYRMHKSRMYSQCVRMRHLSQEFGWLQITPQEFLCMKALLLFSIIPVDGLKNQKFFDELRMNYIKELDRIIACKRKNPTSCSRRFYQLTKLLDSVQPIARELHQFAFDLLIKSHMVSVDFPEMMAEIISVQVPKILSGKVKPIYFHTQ

Q: For C[C@]12CCC(=O)C=C1CCC1C2CC[C@]2(C)C(n3ccnc3)=CCC12 (stereo partly drawn) [VN/108-1], which “Effect on LNCaP cell growth in absence of androgens” value (LNCaP cells [1]) is on record?
A: The value was “stimulated cell growth in absence of androgens”.

Q: What about the “Concentration that completely blocked DHT stimulation” value (LNCaP cells [2]) of the same compound?
A: The value was 5.0 µM.

Q: And the “Inhibition of LNCaP tumour growth (tumour volume)” value (LNCaP tumour xenografts; 50 mg kg-1 day-1, 4 weeks)?
A: Its value is 9%.

Q: And the “Effect on tumour growth or tumour weights” value (LNCaP tumour xenografts; 50 mg kg-1 day-1, 28 days)?
A: The value was “no significant effects on tumour growth or tumour weights”.

Q: What about the IC50 [3] of the same compound?
A: Its IC50 is 142 nM.

Q: What about the “Serum PSA levels versus control” value (serum PSA) of the same compound?
A: Its value is “lowest levels of serum PSA; also recorded: significantly lower”.

Q: What about the “Serum DHT” value (serum DHT) of the same compound?
A: Its value is 122.1 pg/mL.

Q: What about the “Concentration that completely inhibited the growth stimulatory effect of testosterone” value (LNCaP cells [4]; 0.1 nM testosterone, 9 days) of the same compound?
A: Its value is 5 µM.

Q: And the “Effect on growth-stimulating effects of androgens” value (LNCaP cells [4]; wild-type LNCaP cells, testosterone or DHT)?
A: Its value is “blocked the growth-stimulating effects of androgens”.

Q: What about the “Serum Testosterone” value (serum testosterone) of the same compound?
A: The value was 0.081 ng/mL.

Q: What about the IC50 [5] of the same compound?
A: The IC50 was 2.96 ± 0.78 nM.

Q: What about the “Character at LNCaP AR” value (LNCaP androgen receptor) of the same compound?
A: Its value is “partial agonist of LNCaP AR”.
